In PubChem BioAssay AID1963439 (Molecular Pharmacology Branch, DTP, NCI, 2024):
Values joined by “and” are separate entries in the source; they are usually repeats but may differ in a detail not shown here. Equal entries are not always repeated.

Test system: NCI-H196 complex spheroids with HUVEC/MSC, growth % T/C
Assay: Anticancer human tumor NCI-H196 cell line growth inhibition [Asc];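 further: spheroids exposed to compound for 7 days before measurement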;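 on viability, T/C: 100% = DMSO vehicle control wells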
Conditions: for viability, T/C: stronger effect = lower value; active means viability on the fitted dose curve at most 10% of control; inactive means the rest
Procedure, shortened: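 Stromal components (HUVEC and hMSC) are co-assembled with the cancer cells into multicellular spheroids. Drugs are then added singly or paired, at concentrations falling by half-log increments from a clinically achievable maximum, capped at 10 microM without known Cmax.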

[1] = curve of first compound, second compound 0.1 µM
[2] = curve of first compound, second compound 0.316 µM
[3] = curve of first compound, second compound 1 µM
[4] = curve of first compound, second compound 3.16 µM
[5] = curve of first compound, second compound 10 µM
[6] = second compound 0.1 µM, first compound 0.0316 µM
[7] = second compound 0.1 µM, first compound 0.1 µM
[8] = second compound 0.316 µM, first compound 0.0316 µM
[9] = second compound 0.316 µM, first compound 0.1 µM
[10] = second compound 1 µM, first compound 0.0316 µM
[11] = second compound 1 µM, first compound 0.1 µM
[12] = second compound 3.16 µM, first compound 0.0316 µM
[13] = second compound 3.16 µM, first compound 0.1 µM
[14] = second compound 10 µM, first compound 0.0316 µM
[15] = second compound 10 µM, first compound 0.1 µM
[16] = second compound 0.1 µM, first compound 0.316 µM
[17] = second compound 0.1 µM, first compound 1 µM
[18] = second compound 0.1 µM, first compound 3.16 µM
[19] = second compound 0.1 µM, first compound 10 µM
[20] = second compound 0.316 µM, first compound 0.316 µM
[21] = second compound 0.316 µM, first compound 1 µM
[22] = second compound 0.316 µM, first compound 3.16 µM
[23] = second compound 0.316 µM, first compound 10 µM
[24] = second compound 1 µM, first compound 0.316 µM
[25] = second compound 1 µM, first compound 1 µM
[26] = second compound 1 µM, first compound 3.16 µM
[27] = second compound 1 µM, first compound 10 µM
[28] = second compound 3.16 µM, first compound 0.316 µM
[29] = second compound 3.16 µM, first compound 1 µM
[30] = second compound 3.16 µM, first compound 3.16 µM
[31] = second compound 3.16 µM, first compound 10 µM
[32] = second compound 10 µM, first compound 0.316 µM
[33] = second compound 10 µM, first compound 1 µM
[34] = second compound 10 µM, first compound 3.16 µM
[35] = second compound 10 µM, first compound 10 µM

Cn1ncnc1[C@H]1c2n[nH]c(=O)c3cc(F)cc(c23)N[C@@H]1c1ccc(F)cc1 + Cc1c(S(C)(=O)=O)c(-c2cc(F)cc(N3CCN(c4ccc(NS(=O)(=O)c5ccc(NC(CCN6CCC(C(=O)OCCCP(=O)(O)O)CC6)CSc6ccccc6)c(S(=O)(=O)C(F)(F)F)c5)cc4)CC3)c2)c(-c2ccc(Cl)cc2)n1C(C)C
> 100 nM: IC50 [1] | IC50 [2] | IC50 [3] | IC50 [4] | IC50 [5]
inactive: viability, T/C (second compound 0.1 µM, first compound 0.000316 µM) 107% | viability, T/C (second compound 0.1 µM, first compound 0.001 µM) 101% | viability, T/C (second compound 0.1 µM, first compound 0.00316 µM) 102% | viability, T/C (second compound 0.1 µM, first compound 0.01 µM) 101% | viability, T/C [6] 94.8% | viability, T/C [7] 98.4% | viability, T/C (second compound 0.316 µM, first compound 0.000316 µM) 102% | viability, T/C (second compound 0.316 µM, first compound 0.001 µM) 105% | viability, T/C (second compound 0.316 µM, first compound 0.00316 µM) 107% | viability, T/C (second compound 0.316 µM, first compound 0.01 µM) 95.2% | viability, T/C [8] 89% | viability, T/C [9] 93.4% | viability, T/C (second compound 1 µM, first compound 0.000316 µM) 97% | viability, T/C (second compound 1 µM, first compound 0.001 µM) 94.9% | viability, T/C (second compound 1 µM, first compound 0.00316 µM) 94.5% | viability, T/C (second compound 1 µM, first compound 0.01 µM) 95.7% | viability, T/C [10] 86.2% | viability, T/C [11] 94% | viability, T/C (second compound 3.16 µM, first compound 0.000316 µM) 93.1% | viability, T/C (second compound 3.16 µM, first compound 0.001 µM) 84.4% | viability, T/C (second compound 3.16 µM, first compound 0.00316 µM) 78.5% | viability, T/C (second compound 3.16 µM, first compound 0.01 µM) 79.1% | viability, T/C [12] 80.1% | viability, T/C [13] 80.1% | viability, T/C (second compound 10 µM, first compound 0.000316 µM) 77.2% | viability, T/C (second compound 10 µM, first compound 0.001 µM) 85% | viability, T/C (second compound 10 µM, first compound 0.00316 µM) 78.7% | viability, T/C (second compound 10 µM, first compound 0.01 µM) 73.9% | viability, T/C [14] 62.8% | viability, T/C [15] 66.8%

COc1c(OCCCN2CCOCC2)ccc2c3n(c(=NC(=O)c4cnc(N)nc4)nc12)CCN3
> 1000 nM: IC50 (curve of compound)
inactive: viability, T/C (compound 0.00316 µM) 96% and 93% and 109% | viability, T/C (compound 0.01 µM) 91.4% and 90.6% and 101% | viability, T/C (compound 0.0316 µM) 94.1% and 100% and 108% | viability, T/C (compound 0.1 µM) 77.4% and 86.4% and 90.1% | viability, T/C (compound 0.316 µM) 67.9% and 69.6% and 69.5% | viability, T/C (compound 1 µM) 56.8% and 50.8% and 51%

CCN1CCN(Cc2ccc(Nc3ncc(F)c(-c4cc(F)c5nc(C)n(C(C)C)c5c4)n3)nc2)CC1
inactive: viability, T/C (compound 0.00316 µM) 106% and 104% and 96.7% | viability, T/C (compound 0.01 µM) 107% and 101% and 105% | viability, T/C (compound 0.0316 µM) 112% and 95.9% and 98.3% | viability, T/C (compound 0.1 µM) 103% and 110% and 106% | viability, T/C (compound 0.316 µM) 108% and 113% and 112% | viability, T/C (compound 1 µM) 120% and 116% and 119%
> 1000 nM: IC50 (curve of compound)

C#Cc1c(F)ccc2cc(O)cc(-c3ncc4c(N5CC6CCC(C5)N6)nc(OCC56CCCN5CC(F)C6)nc4c3F)c12 (centres undefined) + Cc1c(S(C)(=O)=O)c(-c2cc(F)cc(N3CCN(c4ccc(NS(=O)(=O)c5ccc(NC(CCN6CCC(C(=O)OCCCP(=O)(O)O)CC6)CSc6ccccc6)c(S(=O)(=O)C(F)(F)F)c5)cc4)CC3)c2)c(-c2ccc(Cl)cc2)n1C(C)C
inactive: viability, T/C [6] 92.8% | viability, T/C [7] 93% | viability, T/C [16] 98.2% | viability, T/C [17] 98.1% | viability, T/C [18] 94.2% | viability, T/C [19] 93.5% | viability, T/C [8] 98.3% | viability, T/C [9] 93.3% | viability, T/C [20] 88.8% | viability, T/C [21] 97.8% | viability, T/C [22] 94.8% | viability, T/C [23] 88.1% | viability, T/C [10] 88.9% | viability, T/C [11] 87.7% | viability, T/C [24] 90.8% | viability, T/C [25] 89.2% | viability, T/C [26] 93.7% | viability, T/C [27] 83.7% | viability, T/C [12] 84.4% | viability, T/C [13] 86.7% | viability, T/C [28] 81.3% | viability, T/C [29] 75.5% | viability, T/C [30] 78.5% | viability, T/C [31] 70.1% | viability, T/C [14] 71.8% | viability, T/C [15] 77.8% | viability, T/C [32] 82.7% | viability, T/C [33] 80.4% | viability, T/C [34] 71.2% | viability, T/C [35] 58%
> 10000 nM: IC50 [1] | IC50 [2] | IC50 [3] | IC50 [4] | IC50 [5]

C=CC(=O)N1CCN(c2nc(=O)n(-c3c(C)ccnc3C(C)C)c3nc(-c4c(O)cccc4F)c(F)cc23)C(C)C1 (centres undefined) + Cc1c(S(C)(=O)=O)c(-c2cc(F)cc(N3CCN(c4ccc(NS(=O)(=O)c5ccc(NC(CCN6CCC(C(=O)OCCCP(=O)(O)O)CC6)CSc6ccccc6)c(S(=O)(=O)C(F)(F)F)c5)cc4)CC3)c2)c(-c2ccc(Cl)cc2)n1C(C)C
inactive: viability, T/C [6] 103% | viability, T/C [7] 93.2% | viability, T/C [16] 96.1% | viability, T/C [17] 102% | viability, T/C [18] 96% | viability, T/C [19] 97.9% | viability, T/C [8] 92.1% | viability, T/C [9] 97.4% | viability, T/C [20] 96% | viability, T/C [21] 109% | viability, T/C [22] 104% | viability, T/C [23] 96.5% | viability, T/C [10] 95.5% | viability, T/C [11] 92.4% | viability, T/C [24] 93.9% | viability, T/C [25] 88% | viability, T/C [26] 110% | viability, T/C [27] 85.7% | viability, T/C [12] 87.9% | viability, T/C [13] 87.1% | viability, T/C [28] 83.8% | viability, T/C [29] 87.8% | viability, T/C [30] 84.9% | viability, T/C [31] 80% | viability, T/C [14] 73.9% | viability, T/C [15] 79.6% | viability, T/C [32] 79.8% | viability, T/C [33] 75.3% | viability, T/C [34] 78.1% | viability, T/C [35] 66.8%
> 10000 nM: IC50 [1] | IC50 [2] | IC50 [3] | IC50 [4] | IC50 [5]

CNC(C)C(=O)NC1CN(S(=O)(=O)c2cccc(S(=O)(=O)N3CCC4CCC(C(=O)NC(c5ccccc5)c5ccccc5)N4C(=O)C(NC(=O)C(C)NC)C3)c2)CCC2CCC(C(=O)NC(c3ccccc3)c3ccccc3)N2C1=O (centres undefined) + CCN1C(C(=O)NC23CCC(C(=O)O)(CC2)CC3)C(c2cccc(Cl)c2F)C2(C(=O)Nc3cc(Cl)ccc32)C12CCCCC2
active: viability, T/C (second compound 0.03 µM, first compound 0.0316 µM) 4.75% | viability, T/C (second compound 0.03 µM, first compound 0.1 µM) 1.79% | viability, T/C (second compound 0.03 µM, first compound 0.316 µM) 2.4% | viability, T/C (second compound 0.03 µM, first compound 1 µM) 1.46% | viability, T/C (second compound 0.0949 µM, first compound 0.0316 µM) 4.24% | viability, T/C (second compound 0.0949 µM, first compound 0.1 µM) 4.09% | viability, T/C (second compound 0.0949 µM, first compound 0.316 µM) 2.61% | viability, T/C (second compound 0.0949 µM, first compound 1 µM) 1.28% | viability, T/C (second compound 0.3 µM, first compound 0.0316 µM) 5.95% | viability, T/C (second compound 0.3 µM, first compound 0.1 µM) 3.82% | viability, T/C (second compound 0.3 µM, first compound 0.316 µM) 3.47% | viability, T/C (second compound 0.3 µM, first compound 1 µM) 1.29% | viability, T/C (second compound 0.949 µM, first compound 0.0316 µM) 6.82% | viability, T/C (second compound 0.949 µM, first compound 0.1 µM) 2.74% | viability, T/C (second compound 0.949 µM, first compound 0.316 µM) 2.84% | viability, T/C (second compound 0.949 µM, first compound 1 µM) 2.2% | viability, T/C (second compound 3 µM, first compound 0.0316 µM) 4.77% | viability, T/C (second compound 3 µM, first compound 0.1 µM) 2.4% | viability, T/C (second compound 3 µM, first compound 0.316 µM) 3.09% | viability, T/C (second compound 3 µM, first compound 1 µM) 1.59%
3.18 nM: IC50 (curve of first compound, second compound 0.949 µM)
< 3.16 nM: IC50 (curve of first compound, second compound 0.03 µM) | IC50 (curve of first compound, second compound 0.0949 µM) | IC50 (curve of first compound, second compound 0.3 µM) | IC50 (curve of first compound, second compound 3 µM)
inactive: viability, T/C (second compound 0.03 µM, first compound 0.00316 µM) 40.6% | viability, T/C (second compound 0.03 µM, first compound 0.01 µM) 17.9% | viability, T/C (second compound 0.0949 µM, first compound 0.00316 µM) 45.3% | viability, T/C (second compound 0.0949 µM, first compound 0.01 µM) 19.1% | viability, T/C (second compound 0.3 µM, first compound 0.00316 µM) 47.4% | viability, T/C (second compound 0.3 µM, first compound 0.01 µM) 16.6% | viability, T/C (second compound 0.949 µM, first compound 0.00316 µM) 50.4% | viability, T/C (second compound 0.949 µM, first compound 0.01 µM) 18.4% | viability, T/C (second compound 3 µM, first compound 0.00316 µM) 47.6% | viability, T/C (second compound 3 µM, first compound 0.01 µM) 16.9%
